This is an account of results in patent US12403144B2, “HECT E3 ligase inhibitors and uses thereof” (IFOM FONDAZIONE ISTITUTO FIRC DI ONCOLOGIA MOLECOLARE, priority 2019, dated 2025).

Where a name gives a salt, the structure may show the parent alone.

In this experiment the target is T1, untagged HECT of NEDD4 wild-type (WT) (E3 ligase) (Homo sapiens, UniProt P46934).
T1 construct: untagged HECT of NEDD4 wild-type (WT) (E3 ligase); made in house
T1 sequence (P46934 519-900 isoform P46934-4 limits assumed): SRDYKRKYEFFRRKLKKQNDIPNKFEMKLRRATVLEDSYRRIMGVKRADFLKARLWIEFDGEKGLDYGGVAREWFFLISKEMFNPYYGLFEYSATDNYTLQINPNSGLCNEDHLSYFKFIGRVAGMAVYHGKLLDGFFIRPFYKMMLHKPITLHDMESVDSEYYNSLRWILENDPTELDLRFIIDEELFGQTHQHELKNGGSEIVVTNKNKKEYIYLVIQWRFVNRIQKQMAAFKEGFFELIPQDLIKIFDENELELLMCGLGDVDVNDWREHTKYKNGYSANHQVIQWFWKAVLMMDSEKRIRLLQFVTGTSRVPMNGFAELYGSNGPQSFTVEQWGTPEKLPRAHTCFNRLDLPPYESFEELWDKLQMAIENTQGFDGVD
Description: In vitro ubiquitination assay TR-FRET based (self-ubiquitination of NEDD4). Type of experiment: biochemical. As to conditions: at 11 μM; pre-incubated for 1 hour; AUC of 120 minutes kinetic; read-out: percentages of inhibition (NEDD4). The method, boiled down: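 Mix of E1, His-UBE2D3 and untagged NEDD4 HECT (final 30, 350, 50 nM) with Eu-cryptate/Cy5/unlabelled ubiquitin in pH 7.6 Tris buffer, compounds (100–0.005 μM dilution series) pre-incubated 1 h, then started with ATP. 665/620 nm TR-FRET followed 120 min; % inhibition from AUC versus DMSO, no-ATP background.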
Background: Time-resolved FRET reads energy transfer from a long-lived donor to a nearby acceptor.
As usually defined, the inhibition is the drop in the measured response relative to a control, in per cent. As to `O=C(/C=C/CNCCCCN1c2ccccc2CCc2ccc(Cl)cc21)NOCc1ccccc1` [Compound 79, (E)-4-[4-(3-chloro-10,11-dihydro-5H-dibenzo[b,f]azepin-5-yl)butylamino]-N-benzyloxy-but-2-enamide maleate], the inhibition at 11 µM was greater than 50%.

For `CCONC(=O)/C=C/CNCCCCN1c2ccccc2CCc2ccc(Cl)cc21` [Compound 80, (E)-4-[4-(3-chloro-10,11-dihydro-5H-dibenzo[b,f]azepin-5-yl)butylamino]-N-ethoxy-but-2-enamide maleate], the inhibition at 11 µM is greater than 50%.

As to `CC(C)ONC(=O)/C=C/CNCCCCN1c2ccccc2CCc2ccc(Cl)cc21` [Compound 81, (E)-4-[4-(3-chloro-10,11-dihydro-5H-dibenzo[b,f]azepin-5-yl)butylamino]-N-isopropoxy-but-2-enamide maleate], the inhibition at 11 µM is greater than 50%.

For the compound `O=C(/C=C/CNCCCCN1c2ccccc2CCc2ccc(Cl)cc21)NOc1ccccc1` [Compound 82, (E)-4-[4-(3-chloro-10,11-dihydro-5H-dibenzo[b,f]azepin-5-yl)butylamino]-N-phenoxy-but-2-enamide maleate], the inhibition at 11 µM was greater than 50%.

For `O=C(/C=C/CNCCCCN1c2ccccc2CCc2ccc(Cl)cc21)NOC1CCNCC1` [Compound 83, (E)-4-[4-(3-Chloro-10,11-dihydro-5H-dibenzo[b,f]azepin-5-yl)butylamino]-N-(4-piperidyloxy)-but-2-enamide dimaleate], the inhibition at 11 µM is greater than 50%.

Take `CCOC(=O)/C=C/CNCCCCN1c2cc(Cl)ccc2C(=O)N(CCOCCOC)c2ccccc21` [Compound 86, Ethyl (E)-4-{[4-(3-chloro-10-[2-(2-methoxyethoxy)ethyl]-11-oxo-10,11-dihydro-5H-dibenzo[b,e][1,4]diazepin-5-yl)butyl]amino}but-2-enoate maleate]: the inhibition at 11 µM is greater than 50%.

Turning to `CCOC(=O)/C=C/CNCCCCN1c2cc(Cl)ccc2C(=O)N(CCOCCOCCOC)c2ccccc21` [Compound 87, Ethyl (E)-4-{[4-(3-chloro-10-[2-[2-(2-methoxyethoxy)ethoxy]ethyl]-11-oxo-10,11-dihydro-5H-dibenzo[b,e][1,4]diazepin-5-yl)butyl]amino}but-2-enoate maleate], the inhibition at 11 µM was greater than 50%.

Consider `C#CCOCCN1C(=O)c2ccc(Cl)cc2N(CCCCNC/C=C/C(=O)OCC)c2ccccc21` [Compound 88, Ethyl (E)-4-{[4-[3-chloro-10-[2-(prop-2-yn-1-yloxy)ethyl]-11-oxo-10,11-dihydro-5H-dibenzo[b,e][1,4]diazepin-5-yl)butyl]amino}but-2-enoate maleate], for which the inhibition at 11 µM was greater than 50%.

Regarding `C#CCOCCOc1ccc2c(c1)CCc1ccc(Cl)cc1N2CCCCN(C)C/C=C/C(=O)OC` [Compound 89, Methyl (E)-4-{4-[7-chloro-2-(2-prop-2-ynoxyethoxy)-10,11-dihydro-5H-dibenzo[b,f]azepin-5-yl]-butyl-methyl-amino}-but-2-enoate maleate], the inhibition at 11 µM was greater than 50%.

Consider `C#CCOCCOc1ccc2c(c1)CCc1ccc(Cl)cc1N2CCCCN(C)C/C=C/C#N` [Compound 90, (E)-4-{4-[7-chloro-2-(2-prop-2-ynoxyethoxy)-10,11-dihydro-5H-dibenzo[b,f]azepin-5-yl]butyl-methyl-amino}but-2-enenitrile maleate], for which the inhibition at 11 µM was greater than 50%.

Take `C#CCOC(=O)/C=C/CNCCCCN1c2ccccc2CCc2ccc(Cl)cc21` [Compound 91, Prop-2-yn-1-yl (E)-4-[4-(3-chloro-10,11-dihydro-5H-dibenzo[b,f]azepin-5-yl)butylamino]but-2-enoate maleate]: the inhibition at 11 µM is greater than 50%.

Consider `C#CCOCCOC(=O)/C=C/CNCCCCN1c2ccccc2CCc2ccc(Cl)cc21` [Compound 92, 2-Prop-2-ynyloxy-ethyl (E)-4-[4-(3-chloro-10,11-dihydro-5H-dibenzo[b,f]azepin-5-yl)butylamino]but-2-enoate maleate], for which the inhibition at 11 µM is greater than 50%.

Regarding `COCCOCCOC(=O)/C=C/CNCCCCN1c2ccccc2CCc2ccc(Cl)cc21` [Compound 93, 2-(2-Methoxy-ethoxy)-ethyl (E)-4-[4-(3-chloro-10,11-dihydro-dibenzo[b,f]azepin-5-yl)-butylamino]but-2-enoate maleate], the inhibition at 11 µM is greater than 50%.

In the case of `CN(C/C=C/C(=O)OCCOCCOCCOCCOCCOCCNC(=O)CCCC[C@@H]1SC[C@@H]2NC(=O)N[C@@H]21)CCCCN1c2ccccc2CCc2ccc(Cl)cc21` [Compound 95, 2-(2-{2-[2-(2-{2-[5-((3aS,4S,6aR)-2-Oxo-hexahydro-thieno[3,4-d]imidazol-4-yl)-pentanoylamino]-ethoxy}-ethoxy)-ethoxy]-ethoxy}-ethoxy)-ethyl (E)-4-{[4-(3-chloro-10,11-dihydro-dibenzo[b,f]azepin-5-yl)-butyl]-methyl-amino}but-2-enoate], the inhibition at 11 µM was greater than 50%.

On to `CN(C/C=C/C(=O)OCCOCCOCCOCCOCCOCCOCCOCCNC(=O)CCCC[C@@H]1SC[C@@H]2NC(=O)N[C@@H]21)CCCCN1c2ccccc2CCc2ccc(Cl)cc21` [Compound 96, 2-(2-{2-[2-(2-{2-[2-(2-[5-((3aS,4S,6aR)-2-Oxo-hexahydro-thieno[3,4-d]imidazol-4-yl)-pentanoylamino]-ethoxy)-ethoxy]-ethoxy}-ethoxy)-ethoxy]-ethoxy}-ethoxy)-ethyl (E)-4-{[4-(3-chloro-10,11-dihydro-dibenzo[b,f]azepin-5-yl)-butyl]-methyl-amino} but-2-enoate], for which the inhibition at 11 µM is greater than 50%.

For `CCOC(=O)/C=C/CNCCCCN1c2ccc(OCCOC)cc2CCc2ccc(Cl)cc21` [Compound 97, Ethyl (E)-4-{4-[7-Chloro-2-(2-methoxy-ethoxy)-10,11-dihydro-5H-dibenzo[b,f]azepin-5-yl]-butylamino}-but-2-enoate maleate], the inhibition at 11 µM is greater than 50%.

Regarding `CCOC(=O)/C=C/CNCCCCN1c2ccc(OCCOCCOC)cc2CCc2ccc(Cl)cc21` [Compound 98, Ethyl (E)-4-(4-{7-chloro-2-[2-(2-methoxy-ethoxy)-ethoxy]-10,11-dihydro-5H-dibenzo[b,f]azepin-5-yl}-butylamino)-but-2-enoate maleate], the inhibition at 11 µM is greater than 50%.

Turning to `CN(C/C=C/C#N)CCCCN1c2ccc(OCCOCc3cn(CCOCCOCCOCCNC(=O)CCCC[C@@H]4SC[C@@H]5NC(=O)N[C@@H]54)nn3)cc2CCc2ccc(Cl)cc21` [Compound 99, 5-((3aS,4S,6aR)-2-Oxo-hexahydro-thieno[3,4-d]imidazol-4-yl)-(2-{2-[2-(2-{4-[2-(7-chloro-5-{4-[((E)-3-cyano-allyl)-methyl-amino]-butyl}-10,11-dihydro-5H-dibenzo[b,f]azepin-2-yloxy)-ethoxymethyl]-[1,2,3]triazol-1-yl}-ethoxy)-ethoxy]-ethoxy}-ethyl)pentanamide], the inhibition at 11 µM is greater than 50%.

For the compound `C#CCOc1ccc2c(c1)CCc1ccc(Cl)cc1N2CCCCNC/C=C/C(=O)OCC` [Compound 100, Ethyl (E)-4-[4-(7-Chloro-2-prop-2-ynyloxy-10,11-dihydro-dibenzo[b,f]azepin-5-yl)-butylamino]-but-2-enoate maleate], the inhibition at 11 µM was greater than 50%.

Consider `CCOC(=O)/C=C/CNCCCCN1c2ccc(OCc3ccccc3)cc2CCc2ccc(Cl)cc21` [Compound 101, Ethyl (E)-4-[4-(2-benzyloxy-7-chloro-10,11-dihydro-dibenzo[b,f]azepin-5-yl)-butylamino]-but-2-enoate maleate], for which the inhibition at 11 µM was less than 30%.

Turning to `COCCOC(=O)/C=C/CNCCCCN1c2ccccc2CCc2ccc(Cl)cc21` [Compound 102, 2-methoxy-ethyl (E)-4-[4-(3-chloro-10,11-dihydro-dibenzo[b,f]azepin-5-yl)-butylamino]-but-2-enoate maleate], the inhibition at 11 µM is greater than 50%.
